Square brackets hold non-standard residues; d marks the D form. Peptide text beside a SMILES is read from it.
How the values were obtained:
[1] = target: Melanocortin receptor 4 (Mus musculus) (UniProt P56450); assay: Agonist activity at mouse MC4 receptor expressed in HEK-293 cells assessed as cAMP response measured at 100 uM after 2 hrs incubation by cAMP Alphascreen assay relative to control; assay type: functional, cell-based; conditions: HEK293
[2] = target: Melanocyte-stimulating hormone receptor (Mus musculus, UniProt Q01727); assay: Agonist activity at mouse MC1 receptor expressed in HEK-293 cells assessed as cAMP response measured after 2 hrs incubation by cAMP Alphascreen assay; assay type: functional, cell-based, HEK293
[3] = target: Melanocortin receptor 3 (Mus musculus) (UniProt P33033); assay: Agonist activity at mouse MC3 receptor expressed in HEK-293 cells assessed as cAMP response measured at 100 uM after 2 hrs incubation by cAMP Alphascreen assay relative to control; assay type: functional, cell-based; conditions: HEK293
[4] = target: Melanocortin receptor 5 (Mus musculus) (UniProt P41149); assay: Agonist activity at mouse MC5 receptor expressed in HEK-293 cells assessed as cAMP response measured at 100 uM after 2 hrs incubation by cAMP Alphascreen assay relative to control; assay type: functional, cell-based; conditions: HEK293
[5] = target: Melanocyte-stimulating hormone receptor (Mus musculus) (UniProt Q01727); assay: Agonist activity at mouse MC1 receptor expressed in HEK-293 cells assessed as cAMP response measured at 100 uM after 2 hrs incubation by cAMP Alphascreen assay relative to control; assay type: functional, cell-based; conditions: HEK293
Melanocortin receptor 4 = Melanocortin receptor 4 (Mus musculus, UniProt P56450); assay: Agonist activity at mouse MC4 receptor expressed in HEK-293 cells assessed as cAMP response measured after 2 hrs incubation by cAMP Alphascreen assay; assay type: functional, cell-based, HEK293
Melanocortin receptor 5 = Melanocortin receptor 5 (Mus musculus, UniProt P41149); assay: Agonist activity at mouse MC5 receptor expressed in HEK-293 cells assessed as cAMP response measured after 2 hrs incubation by cAMP Alphascreen assay; assay type: functional, cell-based, HEK293
Melanocortin receptor 3 = Melanocortin receptor 3 (Mus musculus, UniProt P33033); assay: Agonist activity at mouse MC3 receptor expressed in HEK-293 cells assessed as cAMP response measured after 2 hrs incubation by cAMP Alphascreen assay; assay type: functional, cell-based, HEK293
Mus musculus = species: Mus musculus; assay: Selectivity ratio for mouse MC3 receptor over mouse MC4 receptor

Chain of Melanocortin receptor 3 (Mus musculus) (P33033 whole entry): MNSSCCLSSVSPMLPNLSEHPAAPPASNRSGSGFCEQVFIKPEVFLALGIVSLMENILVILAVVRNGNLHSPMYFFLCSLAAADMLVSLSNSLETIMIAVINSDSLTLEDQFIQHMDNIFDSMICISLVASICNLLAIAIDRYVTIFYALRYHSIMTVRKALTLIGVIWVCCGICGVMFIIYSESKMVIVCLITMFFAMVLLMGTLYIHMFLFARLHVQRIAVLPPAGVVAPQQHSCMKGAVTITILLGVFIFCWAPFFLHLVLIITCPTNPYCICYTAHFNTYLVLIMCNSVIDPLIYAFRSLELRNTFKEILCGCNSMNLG
Chain of Melanocortin receptor 3 (P33033 whole entry): as above
Chain of Melanocortin receptor 5 (P41149 whole entry): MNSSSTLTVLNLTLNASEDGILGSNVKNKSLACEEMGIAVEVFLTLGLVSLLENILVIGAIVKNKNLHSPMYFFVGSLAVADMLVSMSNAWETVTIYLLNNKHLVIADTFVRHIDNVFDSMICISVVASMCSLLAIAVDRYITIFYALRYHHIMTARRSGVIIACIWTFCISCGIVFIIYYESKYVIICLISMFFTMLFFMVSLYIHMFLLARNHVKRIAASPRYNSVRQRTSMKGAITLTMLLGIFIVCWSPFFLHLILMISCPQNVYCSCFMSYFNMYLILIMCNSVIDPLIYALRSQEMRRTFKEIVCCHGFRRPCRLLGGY
Chain of Melanocortin receptor 4 (P56450 whole entry): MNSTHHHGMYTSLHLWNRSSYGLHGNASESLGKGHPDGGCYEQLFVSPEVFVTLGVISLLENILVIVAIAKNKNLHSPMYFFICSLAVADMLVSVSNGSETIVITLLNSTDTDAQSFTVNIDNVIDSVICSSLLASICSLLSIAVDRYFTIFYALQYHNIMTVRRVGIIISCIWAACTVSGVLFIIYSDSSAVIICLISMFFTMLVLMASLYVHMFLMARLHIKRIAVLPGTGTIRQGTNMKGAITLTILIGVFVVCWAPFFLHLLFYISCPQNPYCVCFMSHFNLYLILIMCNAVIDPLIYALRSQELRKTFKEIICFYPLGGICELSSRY
Chain of Melanocyte-stimulating hormone receptor (Q01727 whole entry): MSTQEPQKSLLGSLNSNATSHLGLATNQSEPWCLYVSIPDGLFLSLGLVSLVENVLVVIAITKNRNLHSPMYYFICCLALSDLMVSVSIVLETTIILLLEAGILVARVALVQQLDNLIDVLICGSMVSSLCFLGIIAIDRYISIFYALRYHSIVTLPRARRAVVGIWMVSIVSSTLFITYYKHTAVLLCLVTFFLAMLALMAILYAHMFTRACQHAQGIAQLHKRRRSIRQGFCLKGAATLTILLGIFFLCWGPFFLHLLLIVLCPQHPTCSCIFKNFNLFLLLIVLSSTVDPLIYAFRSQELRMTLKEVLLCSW
Chain of Melanocortin receptor 5 (Mus musculus) (P41149 whole entry): as the sequence (P41149 whole entry) above
Chain of Melanocortin receptor 4 (Mus musculus) (P56450 whole entry): as the sequence (P56450 whole entry) above
Chain of Melanocyte-stimulating hormone receptor (Mus musculus) (Q01727 whole entry, looked up): as the sequence (Q01727 whole entry) above

Compound | Activity [1] | EC50 [2] | Activity [3] | Activity [4] | Activity [5] | EC50 (Melanocortin receptor 4) | EC50 (Melanocortin receptor 5) | EC50 (Melanocortin receptor 3) | Selectivity ratio (Mus musculus)
CC(=O)N[C@@H](Cc1ccccc1)C(=O)N[C@@H](CCCN=C(N)N)C(=O)N[C@@H](Cc1c[nH]c2ccccc12)C(N)=O (Ac-Phe-Arg-Trp-NH2) |  |  |  |  | 60% |  |  |  | 
CC(=O)N[C@@H](Cc1ccccc1)C(=O)N[C@@H](CCCNC(=N)N)C(=O)N[C@@H](Cc1c[nH]c2ccccc12)C(N)=O (Ac-Phe-Arg-Trp-NH2) |  |  |  |  |  | > 100000 nM | > 100000 nM | > 100000 nM | 
CC(=O)N[C@H](Cc1ccccc1)C(=O)N[C@@H](CCCN=C(N)N)C(=O)N[C@@H](Cc1c[nH]c2ccccc12)C(N)=O (Ac-[dF]-Arg-Trp-NH2) | 70% | 10000 nM | 40% | 70% |  |  |  |  | 
CC(=O)N[C@@H](Cc1cnc[nH]1)C(=O)N[C@H](Cc1ccccc1)C(=O)N[C@@H](CCCN=C(N)N)C(=O)N[C@@H](Cc1c[nH]c2ccccc12)C(N)=O |  |  |  |  |  | 5.6 nM |  |  | 
CC(=O)N[C@@H](Cc1c[nH]cn1)C(=O)N[C@@H](Cc1ccccc1)C(=O)N[C@@H](CCCN=C(N)N)C(=O)N[C@@H](Cc1c[nH]c2ccccc12)C(N)=O |  |  |  |  |  | 1210 nM | 70 nM |  | 

Other lines, results leading:

Activity [1] | EC50 [2] | Activity [3] | Activity [4] | Activity [5] | EC50 (Melanocortin receptor 4) | EC50 (Melanocortin receptor 5) | EC50 (Melanocortin receptor 3) | Selectivity ratio (Mus musculus) | Compound
60% | 7030 nM | 50% | 60% |  |  |  |  |  | CC(=O)N[C@@H](Cc1c[nH]cn1)C(=O)N[C@@H](CC(=O)N[C@@H](CCCNC(=N)N)C(=O)N[C@@H](Cc1c[nH]c2ccccc12)C(N)=O)Cc1ccccc1
 | 6580 nM | 70% |  |  | 7680 nM | 4810 nM |  |  | CC(=O)N[C@@H](Cc1c[nH]cn1)C(=O)N[C@H](CC(=O)N[C@@H](CCCNC(=N)N)C(=O)N[C@@H](Cc1c[nH]c2ccccc12)C(N)=O)Cc1ccccc1
 | 33 nM |  |  |  | 12 nM | 5.6 nM | 415 nM | 35 | CC(=O)N[C@@H](Cc1c[nH]cn1)C(=O)N[C@H](Cc1ccccc1)C(=O)N[C@@H](CCCNC(=N)N)C(=O)N[C@H](CC(N)=O)Cc1c[nH]c2ccccc12
 | 37 nM |  |  |  | 70 nM | 73 nM | 854 nM | 12 | CC(=O)N[C@@H](Cc1c[nH]cn1)C(=O)N[C@H](Cc1ccccc1)C(=O)N[C@@H](CCCNC(=N)N)CC(=O)N[C@@H](Cc1c[nH]c2ccccc12)C(N)=O

From ChEMBL document CHEMBL3580664, “Synthesis and Pharmacology of α/β(3)-Peptides Based on the Melanocortin Agonist Ac-His-dPhe-Arg-Trp-NH2 Sequence” (ACS Med Chem Lett, 2015)
